From patent US8518890B2, “Remedies for sex hormone dependent disease” (Takeda Pharmaceutical Company Limited, priority 2002, dated 2013)

Columns and labels:
Assay in all cases: Effect on cell growth in the presence of androgen (cell count)
Type in all cases: cell-based
[1] = tested on: LNCaP-hr cells (highly androgen sensitive cell line); details: LNCaP-hr (cultured 60 weeks in androgen-free broth), 0.01 to 10 ng/mL testosterone, cells counted 3 days after addition, FIG. 1
LNCaP-FGC cells = details: 0.01 to 10 ng/mL testosterone, cells counted 3 days after addition, FIG. 1
Protocol: (§1) (Method) LNCaP-hr (cultured for 60 weeks in culture broth free of androgen) and LNCaP-FGC cells were plated on a 24 well plate at 40000 cells/mL/well, 0.01 to 10 ng/mL of testosterone was added the next day, and the cells were counted 3 days after the addition. In addition, MDA PCa 2b-hr (cultured for 61 weeks in culture broth free of androgen) and MDA PCa 2b cells were plated on a 24 well plate at 40000 cells/mL/well, 0.1 to 100 ng/mL of testosterone was added the next day, and the cells were counted 4 days after the addition. (Results) The growth of LNCaP-FGC and MDA PCa 2b was promoted by testosterone [FIGS. 1 and 2]. In contrast, the growth of LNCaP-hr and MDA PCa 2b-hr cells were suppressed by testosterone [FIGS. 1 and 2].

MDA PCa 2b cells = details: 0.1 to 100 ng/mL testosterone, cells counted 4 days after addition, FIG. 2
Protocol: as §1

[2] = tested on: MDA PCa 2b-hr cells (highly androgen sensitive cell line); details: MDA PCa 2b-hr (cultured 61 weeks in androgen-free broth), 0.1 to 100 ng/mL testosterone, cells counted 4 days after addition, FIG. 2

`C[C@]12CC[C@H]3[C@@H](CCC4=CC(=O)CC[C@@]43C)[C@@H]1CC[C@@H]2O` [testosterone] was tested, and the cell growth [1] was “suppressed”, the cell growth (LNCaP-FGC cells) was “promoted” and the cell growth (MDA PCa 2b cells) was “promoted”. For the same compound, the cell growth [2] was “suppressed”.
